Source: patent publication US9149472B2, “Controlled release compositions for treatment of cognitive, emotional and mental ailments and disorders” (priority 2004, dated 2015)

Experiments:
[1] = test system: mild permanent cognitive and short term memory loss; test: Case study Patient 1: mild permanent cognitive and short term memory loss after mold exposure; type: in vivo, human
Description: A case study of a patient having a long history of allergies was performed.
A typical dosage of the Singulair® is about 10 mg.
A 10 mg tablet can be taken orally upon awakening. […] In a typical implementation, the patient can take another 10 mg dose in about two hours after the initial dose. […] Similar booster dosages can be taken at 3-4 hour intervals throughout the day. […] The Singulair® product typically recommends 10 mg per day.
In another embodiment, a zafirlukast product such as Accolate® and Vanticon® can be implemented. In one implementation, a 20 mg oral dose can be taken upon awakening followed by a 10 mg dose after 2 hours and a 10 mg repeated dose in 4 hours and a final dose of 20 mg another 4 hours later. […] The Accolate® recommended dosage is 20 mg in the morning and evening.

[2] = test system: decreased concentration and focus, memory recall and forgetfulness issues; test: Case study Patient 4: person with decreased concentration, focus and memory recall, plus depression and anxiety; type: in vivo, human; details: 10 mg in the morning along with an antidepressant, additional 10 mg about every 2 hours during waking hours
From the text: A person with symptoms of decreased concentration and focus along with memory recall and forgetfulness issues. The patient was also diagnosed with depression and anxiety.

[3] = test system: symptoms of cognitive ailments; test: Case study Patient 6: person with cognitive ailments, single morning dose; type: in vivo, human
[4] = test system: symptoms of cognitive ailments; details: Patient 3
[5] = test system: memory loss, cognitive, emotional ailments
Description: In most cases, treatment of these ailments requires multiple dosages of 5 mg to 20 mg over the course of the day.

[6] = test system: mild symptoms of forgetfulness; test: Case study Patient 2: person with mild symptoms of forgetfulness
[7] = test system: forgetfulness and problems with word recall; test: Case study Patient 5: person with forgetfulness and word recall problems

CC(C)(O)c1ccccc1CC[C@@H](SCC1(CC(=O)[O-])CC1)c1cccc(/C=C/c2ccc3ccc(Cl)cc3n2)c1.[Na+] [montelukast sodium]
time to relief / marked improvement after the initial higher dosage ([1]; Patient 1, 20-30 mg upon waking): 30 to 45 min
apathy ([1]; Patient 1, about 20-30 mg): marked decrease in apathy
sense of humor ([1]; Patient 1, about 20-30 mg): increase in sense of humor
cognitive, mental and emotional improvement ([1]; Patient 1, about 20-30 mg (2-3 times the typical dosage)): marked cognitive, mental and emotional improvement
effect of additional doses on relief ([1]; Patient 1, additional 10 mg dose every four hours): continues the relief
time to return of symptoms after ceasing the dosage ([1]; Patient 1, after the dosage is ceased): ≤ 24 h
cognitive effect when taking the medication ([1]; Patient 1, as prescribed for allergies, typical dosage about 10 mg): cognitive improvement
mental state under mega-dosing ([1]; booster dosages of 5 mg about every 2 hours, maximum 40 mg in one day): very talkative mental states and highly sensitive mental alertness
symptoms [2]: significant improvement in symptoms
mental clarity and mood ([3]; 50 mg once upon rising in the morning): improved mental clarity in the morning and better mood throughout the day
mental clarity and mood ([3]; 80 mg once upon rising in the morning): improved mental clarity in the morning and better mood throughout the day
side effects [4]: No side effects noted
symptoms while on medication ([4]; 10 mg in the morning, additional 10 mg about every 2 hours during waking hours): significant improvement in symptoms
mood with large immediate release dosages ([5]; immediate release dosages larger than 30 mg): improved mood
effect on ailments (overall finding) ([5]; in most cases multiple dosages of 5 mg to 20 mg over the day): alleviate and treat memory loss, forgetfulness, apathy, emotional and cognitive ailments, and depression
side effects [6]: No side effects reported
time to improvement in symptoms after onset of medication use ([6]; 20 mg in the morning, additional 10-20 mg about every 2 hours during waking hours): ≤ 24 h
symptoms after stopping second course ([6]; after the five-day course was stopped): the symptoms returned again
time to recurrence of symptoms after discontinuation ([6]; stopped after over a week): ≤ 24 h
symptoms during second course ([6]; two weeks later, same regimen for five days): marked improvement in symptoms
other side effects [7]: No other side effects noted
time to improvement after initiation of the protocol [7]: ≤ 24 h
memory and recall issues ([7]; 10 mg in the morning, additional 10 mg about every 2 hours during waking hours, five days): significant improvement in memory and recall issues
sleep (side effect) at 6 doses daily ([7]; 6 doses of 10 mg daily): difficulty sleeping
time to recurrence of symptoms after discontinuation ([7]; discontinued after five days): 24 to 48 h
sleep (side effect) at five doses daily ([7]; schedule reduced to five doses daily): the problem was resolved

COc1cc(C(=O)NS(=O)(=O)c2ccccc2C)ccc1Cc1cn(C)c2ccc(NC(=O)OC3CCCC3)cc12 [Accolate®, zafirlukast]
focus and disposition ([1]; Patient 1, oral 20 mg upon awakening, 10 mg after 2 hours, 10 mg after 4 hours, 20 mg 4 hours later, highest daily dosage 80 mg): heightened focus but results in a less “wired” disposition
